Reference: article PMC3563359 (Nature communications, 2012)

Assays:
SK2-a channels = SK2-a channels (Rattus norvegicus, UniProt P0DP29+P70604); assay: Potentiation of WT SK2-a channel currents, inside-out patch, TsA201 cells; assay type: cell-based
[1] = cited from earlier work
EDHF-mediated responses = conditions: cited from earlier work
[2] = ratio of EC50s, SK2-a, 200 nM Ca2+

Sequence of SK2-a channels (P70604 whole entry, one chain of several): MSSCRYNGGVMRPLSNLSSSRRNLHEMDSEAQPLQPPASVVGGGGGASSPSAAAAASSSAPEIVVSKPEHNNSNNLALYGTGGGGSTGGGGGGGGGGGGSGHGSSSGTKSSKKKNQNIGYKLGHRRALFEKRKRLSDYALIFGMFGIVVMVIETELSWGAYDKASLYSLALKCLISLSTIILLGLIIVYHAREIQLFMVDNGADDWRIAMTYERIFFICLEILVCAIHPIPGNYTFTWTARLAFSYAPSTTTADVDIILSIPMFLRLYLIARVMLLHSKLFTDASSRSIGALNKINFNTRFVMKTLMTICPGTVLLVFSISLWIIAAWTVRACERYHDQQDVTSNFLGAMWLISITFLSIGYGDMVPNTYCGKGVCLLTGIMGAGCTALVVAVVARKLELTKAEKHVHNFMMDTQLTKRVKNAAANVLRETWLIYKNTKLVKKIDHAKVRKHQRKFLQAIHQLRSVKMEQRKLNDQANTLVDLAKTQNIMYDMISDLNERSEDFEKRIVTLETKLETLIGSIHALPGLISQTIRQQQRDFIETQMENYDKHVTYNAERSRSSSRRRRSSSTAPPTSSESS

Row | SMILES | EC50 (SK2-a channels) | Hill coefficient of potentiation of SK2-a channel activity (SK2-a channels; 200 nM Ca2+, inside-out patch) | fold less potent compared to NS309 (SK2-a channels; [2]) | fold less potent than DCEBIO (SK2-a channels; [2]) | effect on blood pressure [1] | effect on EDHF-mediated responses (EDHF-mediated responses)
1 | NC(=O)Nc1ccccc1 [PHU, phenylurea] | 1610 ± 200 µM | 1.81 ± 0.22 | more than 3600 fold | ~75 fold | – | –
2 | Nc1nc2c(ccc3ccccc32)s1 [SKA-31, Naphtho[1,2-d]thiazol-2-ylamine] | – | – | – | – | lowers the blood pressure | enhances
